From the supplement of paper PMC10307832

How the values were obtained:
Test in all cases: relative viability (nuclei count vs DMSO), 5 days (fraction); higher = more cells survive
Idelalisib + Navitoclax = compound: CC[C@H](Nc1ncnc2[nH]cnc12)c1nc2cccc(F)c2c(=O)n1-c1ccccc1 [Idelalisib] + CC1(C)CCC(c2ccc(Cl)cc2)=C(CN2CCN(c3ccc(C(=O)NS(=O)(=O)c4ccc(N[C@H](CCN5CCOCC5)CSc5ccccc5)c(S(=O)(=O)C(F)(F)F)c4)cc3)CC2)C1 [Navitoclax] (partner 0.5 µM)
In short: (§1)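 Relative viability equals treated-well nuclei counts divided by vehicle-well nuclei counts. Counts came from 4× images of lung cancer cell lines grown in 1536-well plates for 5 days after pin-tool dosing on the day after seeding. Dosing used one drug alone or a fixed anchor-drug dose plus five library-drug doses (not always all listed) in √10 steps, and values are medians of duplicate plates.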

Idelalisib + Pemetrexed = compound: CC[C@H](Nc1ncnc2[nH]cnc12)c1nc2cccc(F)c2c(=O)n1-c1ccccc1 [Idelalisib] + Nc1nc2[nH]cc(CCc3ccc(C(=O)N[C@@H](CCC(=O)O)C(=O)O)cc3)c2c(=O)[nH]1 [Pemetrexed] (partner 0.2 µM)
In short: as §1

Idelalisib + Olaparib = compound: CC[C@H](Nc1ncnc2[nH]cnc12)c1nc2cccc(F)c2c(=O)n1-c1ccccc1 [Idelalisib] + O=C(c1cc(Cc2n[nH]c(=O)c3ccccc23)ccc1F)N1CCN(C(=O)C2CC2)CC1 [Olaparib] (partner 8 µM)
In short: as §1

Pemetrexed + Decitabine = compound: Nc1nc2[nH]cc(CCc3ccc(C(=O)N[C@@H](CCC(=O)O)C(=O)O)cc3)c2c(=O)[nH]1 [Pemetrexed] + Nc1ncn([C@H]2C[C@H](O)[C@@H](CO)O2)c(=O)n1 [Decitabine] (partner 2 µM)
In short: as §1

Cell Line | relative viability (Idelalisib + Navitoclax; first compound 0.04 µM) | relative viability (Idelalisib + Navitoclax; first compound 0.1265 µM) | relative viability (Idelalisib + Navitoclax; first compound 1.265 µM) | relative viability (Idelalisib + Navitoclax; first compound 4 µM) | relative viability (Idelalisib + Pemetrexed; first compound 0.04 µM) | relative viability (Idelalisib + Pemetrexed; first compound 0.1265 µM) | relative viability (Idelalisib + Pemetrexed; first compound 1.265 µM) | relative viability (Idelalisib + Pemetrexed; first compound 4 µM) | relative viability (Idelalisib + Olaparib; first compound 0.04 µM) | relative viability (Idelalisib + Olaparib; first compound 0.1265 µM) | relative viability (Idelalisib + Olaparib; first compound 1.265 µM) | relative viability (Idelalisib + Olaparib; first compound 4 µM) | relative viability (Pemetrexed + Decitabine; first compound 0.002 µM) | relative viability (Pemetrexed + Decitabine; first compound 0.006325 µM) | relative viability (Pemetrexed + Decitabine; first compound 0.02 µM) | relative viability (Pemetrexed + Decitabine; first compound 0.06325 µM) | relative viability (Pemetrexed + Decitabine; first compound 0.2 µM) | relative viability (Idelalisib + Navitoclax; first compound 0.4 µM) | relative viability (Idelalisib + Pemetrexed; first compound 0.4 µM) | relative viability (Idelalisib + Olaparib; first compound 0.4 µM)
NCI-H441 | 0.556 | 0.67 | 0.467 | 0.574 | 0.247 | 0.233 | 0.285 | 0.251 | 0.532 | 0.582 | 0.618 | 0.55 | 0.2 | 0.308 | 0.244 | 0.232 | 0.215 |  |  | 
SK-MES-1 | 0.995 | 1.41 | 1.08 | 0.867 | 0.993 | 0.997 | 0.433 | 0.909 | 0.736 | 0.711 | 0.636 | 0.448 | 0.369 | 0.331 | 0.408 | 0.421 | 0.367 | 1.12 | 0.878 | 0.679
HCC-15 | 0.692 | 0.712 | 0.699 | 0.591 | 0.242 | 0.22 | 0.22 | 0.221 | 0.743 | 0.583 | 0.799 | 0.707 | 0.483 | 0.604 | 0.684 | 0.406 | 0.191 | 0.67 | 0.213 | 0.699
EPLC-272H | 1.08 | 1.14 | 1 | 0.959 | 0.303 | 0.386 | 0.23 | 0.347 | 1.01 | 0.916 | 0.637 | 0.619 | 0.348 | 0.377 | 0.413 | 0.33 | 0.296 | 1 | 0.317 | 0.686
NCI-H2009 | 1.11 | 1.17 | 1.22 | 1.18 | 0.99 | 0.996 | 1.09 | 0.991 | 0.639 | 0.712 | 0.74 | 0.516 | 0.372 | 0.307 | 0.416 | 0.355 | 0.342 | 1.19 | 1.03 | 0.672
NCI-H520 | 0.981 | 0.944 | 1.24 | 0.798 | 0.75 | 0.595 | 0.637 | 0.451 | 0.34 | 0.364 | 0.302 | 0.269 | 0.504 | 0.453 | 0.538 | 0.479 | 0.494 | 0.983 | 0.567 | 0.276
NCI-H2405 | 1.01 | 0.759 | 0.766 | 0.622 | 1.13 | 1.06 | 0.974 | 1.09 | 0.893 | 0.885 | 0.868 | 0.836 | 0.717 | 0.649 | 0.691 | 0.687 | 0.685 | 0.716 | 0.986 | 0.76
LCLC-97TM1 | 0.468 | 0.453 | 0.335 | 0.337 | 0.182 | 0.182 | 0.155 | 0.199 | 0.328 | 0.349 | 0.347 | 0.378 | 0.241 | 0.245 | 0.203 | 0.233 | 0.209 |  | 0.15 | 0.324
LK-2 | 0.99 | 0.835 | 1.02 | 0.729 | 0.344 | 0.14 | 0.324 | 0.404 | 0.874 | 0.631 | 0.983 | 0.609 | 0.277 | 0.358 | 0.259 | 0.251 | 0.263 |  |  | 
PC-3 [JPC-3] | 0.912 | 0.892 | 0.668 | 0.679 | 1.4 | 1.16 | 1.09 | 1.08 | 1.09 | 1.23 | 1.13 | 0.953 | 0.765 | 0.845 | 0.956 | 0.837 | 0.857 | 0.795 | 1.11 | 1.08
NCI-H596 | 1.18 | 0.931 | 0.973 | 0.892 | 0.52 | 0.441 | 0.536 | 0.487 | 0.662 | 0.667 | 0.647 | 0.675 | 0.996 | 1.03 | 0.972 | 0.839 | 0.553 | 0.881 | 0.49 | 0.707
NCI-H460 | 1.12 | 1.07 | 1.24 | 1.14 | 0.0676 | 0.0589 | 0.0657 | 0.0587 | 0.491 | 0.466 | 0.454 | 0.472 |  | 0.468 | 0.507 | 0.323 | 0.0945 | 1.09 | 0.0612 | 0.461
NCI-H647 | 1.17 | 1.1 | 0.837 | 0.745 | 0.166 | 0.144 | 0.154 | 0.159 | 0.623 | 0.602 | 0.614 | 0.281 | 0.263 | 0.366 | 0.515 | 0.39 | 0.233 | 0.981 | 0.14 | 0.489
NCI-H838 | 1 | 1.14 | 1.05 | 0.977 | 0.253 | 0.238 | 0.237 | 0.257 | 0.779 | 0.794 | 0.775 | 0.564 | 0.475 | 0.45 | 0.516 | 0.365 | 0.274 | 1.07 | 0.225 | 0.745
PC-14 | 0.987 | 1.1 | 1.14 | 1.02 | 0.15 | 0.126 | 0.142 | 0.135 | 0.268 | 0.232 | 0.384 | 0.297 | 0.211 | 0.217 | 0.301 | 0.0896 | 0.0739 | 0.953 | 0.148 | 0.239
NCI-H1915 | 0.797 | 0.772 | 0.78 | 0.764 | 0.503 | 0.514 | 0.363 | 0.504 | 0.252 | 0.241 | 0.264 | 0.27 | 0.263 | 0.258 | 0.243 | 0.25 | 0.26 | 0.812 | 0.443 | 0.276
